In brackets after ≈: the same amount, converted by molar mass.
Key:
Assay in all cases: in vitro antibacterial evaluation, MIC by broth dilution
Type in all cases: cell-based
Streptococcus sp. = conditions: broth dilution, 18 hours at 35° C.
Method in brief: (§1)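 Inoculum 5×10^5 CFU/mL; concentrations 64 to 0.06 μg/mL; MIC defined as lowest inhibitory level. Conducted by broth dilution under NCCLS guidelines.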

Staphylococcus sp. = conditions: broth dilution, 18 hours at 35° C.; for MIC Staphylococcus aureus (GC 1131): strain GC 1131; for MIC Staphylococcus aureus (ATCC 29213): strain ATCC 29213; for MIC Staphylococcus aureus (GC 3051): strain GC 3051; for MIC Staphylococcus aureus (GC 3053): strain GC 3053; for MIC Staphylococcus aureus (GC 4541): strain GC 4541; for MIC Staphylococcus aureus (GC 4542): strain GC 4542; for MIC Staphylococcus aureus-SMITH (GC 4543): strain GC 4543; for MIC Staphylococcus aureus (GC 4544): strain GC 4544; for MIC Staphylococcus aureus (GC 4545): strain GC 4545; for MIC Staphylococcus haemolyticus (GC 4546): strain GC 4546; for MIC Coagulase Negative Staphylococcus (GC 4547): strain GC 4547; for MIC Coagulase Negative Staphylococcus (GC 4548): strain GC 4548; for MIC Coagulase Negative Staphylococcus (GC 4549): strain GC 4549; for MIC Coagulase Negative Staphylococcus (GC 4551): strain GC 4551; for MIC Coagulase Negative Staphylococcus (GC 6257): strain GC 6257
Method in brief: as §1

Enterococcus sp. = conditions: broth dilution, 18 hours at 35° C.
Method in brief: as §1

Escherichia coli = conditions: 18 hours at 35° C.

Compound: CC(c1ccc(Cl)cc1)C1NC(=O)CNC(=O)C(CO)NC(=O)C(C(O)C2CNC(=N)N2C2OC(CO)C(O)C(O)C2O)NC(=O)C(C(O)C2CNC(=N)N2)NC(=O)C(Cc2ccc(OC3OC(CO)C(OC4OC5COC(c6ccccc6)OC5C(O)C4O)C(O)C3O)cc2)NC1=O (stereo not shown) [Example 195]
- MIC Streptococcus agalactiae (GC 4564) (Streptococcus sp.): 0.5 µg/mL (≈ 0.353 µM)
- MIC Streptococcus pneumoniae (ATCC 6301) (Streptococcus sp.): 0.12 µg/mL (≈ 0.0846 µM)
- MIC Streptococcus pneumoniae (GC 1894) (Streptococcus sp.): 0.12 µg/mL (≈ 0.0846 µM)
- MIC Streptococcus pneumoniae (GC 4565) (Streptococcus sp.): 0.12 µg/mL (≈ 0.0846 µM)
- MIC Streptococcus pyogenes (GC 4563) (Streptococcus sp.): 0.12 µg/mL (≈ 0.0846 µM)
- MIC Streptococcus pneumoniae (ATCC 6301) (Streptococcus sp.; inoculum 5×10^5 CFU/mL, strain ATCC 6301): 0.12 µg/mL (≈ 0.0846 µM)
- MIC Streptococcus pneumoniae (GC 1894) (Streptococcus sp.; inoculum 5×10^5 CFU/mL, strain GC 1894): 0.12 µg/mL (≈ 0.0846 µM)
- MIC Streptococcus pyogenes (GC 4563) (Streptococcus sp.; inoculum 5×10^5 CFU/mL, strain GC 4563): 0.12 µg/mL (≈ 0.0846 µM)
- MIC Streptococcus agalactiae (GC 4564) (Streptococcus sp.; inoculum 5×10^5 CFU/mL, strain GC 4564): 0.5 µg/mL (≈ 0.353 µM)
- MIC Streptococcus pneumoniae (GC 4565) (Streptococcus sp.; inoculum 5×10^5 CFU/mL, strain GC 4565): 0.12 µg/mL (≈ 0.0846 µM)
- MIC Staphylococcus aureus (GC 1131) (Staphylococcus sp.; inoculum 5×10^5 CFU/mL): 0.5 µg/mL (≈ 0.353 µM)
- MIC Staphylococcus aureus (ATCC 29213) (Staphylococcus sp.): 0.5 µg/mL (≈ 0.353 µM)
- MIC Staphylococcus aureus (GC 1131) (Staphylococcus sp.): 0.5 µg/mL (≈ 0.353 µM)
- MIC Staphylococcus aureus (GC 3051) (Staphylococcus sp.): 0.5 µg/mL (≈ 0.353 µM)
- MIC Staphylococcus aureus (GC 3053) (Staphylococcus sp.): 0.5 µg/mL (≈ 0.353 µM)
- MIC Staphylococcus aureus (GC 4541) (Staphylococcus sp.): 0.5 µg/mL (≈ 0.353 µM)
- MIC Staphylococcus aureus (GC 4542) (Staphylococcus sp.): 0.5 µg/mL (≈ 0.353 µM)
- MIC Staphylococcus aureus-SMITH (GC 4543) (Staphylococcus sp.): 0.5 µg/mL (≈ 0.353 µM)
- MIC Staphylococcus aureus (GC 4544) (Staphylococcus sp.): 0.5 µg/mL (≈ 0.353 µM)
- MIC Staphylococcus aureus (GC 4545) (Staphylococcus sp.): 0.5 µg/mL (≈ 0.353 µM)
- MIC Staphylococcus haemolyticus (GC 4546) (Staphylococcus sp.): 2 µg/mL (≈ 1.41 µM)
- MIC Coagulase Negative Staphylococcus (GC 4547) (Staphylococcus sp.): 4 µg/mL (≈ 2.82 µM)
- MIC Coagulase Negative Staphylococcus (GC 4548) (Staphylococcus sp.): 2 µg/mL (≈ 1.41 µM)
- MIC Coagulase Negative Staphylococcus (GC 4549) (Staphylococcus sp.): 1 µg/mL (≈ 0.705 µM)
- MIC Coagulase Negative Staphylococcus (GC 4551) (Staphylococcus sp.): 4 µg/mL (≈ 2.82 µM)
- MIC Coagulase Negative Staphylococcus (GC 6257) (Staphylococcus sp.): 2 µg/mL (≈ 1.41 µM)
- MIC Enterococcus avium (GC 4558) (Enterococcus sp.): 0.5 µg/mL (≈ 0.353 µM)
- MIC Enterococcus faecalis (ATCC 29212) (Enterococcus sp.): 0.5 µg/mL (≈ 0.353 µM)
- MIC Enterococcus faecalis (GC 2242) (Enterococcus sp.): 0.5 µg/mL (≈ 0.353 µM)
- MIC Enterococcus faecalis (GC 2691) (Enterococcus sp.): 0.5 µg/mL (≈ 0.353 µM)
- MIC Enterococcus faecalis (GC 3059) (Enterococcus sp.): 0.5 µg/mL (≈ 0.353 µM)
- MIC Enterococcus faecalis (GC 4552) (Enterococcus sp.): 0.5 µg/mL (≈ 0.353 µM)
- MIC Enterococcus faecalis (GC 4553) (Enterococcus sp.): 0.5 µg/mL (≈ 0.353 µM)
- MIC Enterococcus faecalis (GC 4554) (Enterococcus sp.): 0.5 µg/mL (≈ 0.353 µM)
- MIC Enterococcus faecalis (GC 6189) (Enterococcus sp.): 0.5 µg/mL (≈ 0.353 µM)
- MIC Enterococcus faecium (GC 2243) (Enterococcus sp.): 0.5 µg/mL (≈ 0.353 µM)
- MIC Enterococcus faecium (GC 4556) (Enterococcus sp.): 0.5 µg/mL (≈ 0.353 µM)
- MIC Enterococcus faecium (GC 4557) (Enterococcus sp.): 0.5 µg/mL (≈ 0.353 µM)
- MIC Enterococcus faecalis (ATCC 29212) (Enterococcus sp.; inoculum 5×10^5 CFU/mL, strain ATCC 29212): 0.5 µg/mL (≈ 0.353 µM)
- MIC Enterococcus faecalis (GC 2242) (Enterococcus sp.; inoculum 5×10^5 CFU/mL, strain GC 2242): 0.5 µg/mL (≈ 0.353 µM)
- MIC Enterococcus faecium (GC 2243) (Enterococcus sp.; inoculum 5×10^5 CFU/mL, strain GC 2243): 0.5 µg/mL (≈ 0.353 µM)
- MIC Enterococcus faecalis (GC 2691) (Enterococcus sp.; inoculum 5×10^5 CFU/mL, strain GC 2691): 0.5 µg/mL (≈ 0.353 µM)
- MIC Enterococcus faecalis (GC 3059) (Enterococcus sp.; inoculum 5×10^5 CFU/mL, strain GC 3059): 0.5 µg/mL (≈ 0.353 µM)
- MIC Enterococcus faecalis (GC 4552) (Enterococcus sp.; inoculum 5×10^5 CFU/mL, strain GC 4552): 0.5 µg/mL (≈ 0.353 µM)
- MIC Enterococcus faecalis (GC 4553) (Enterococcus sp.; inoculum 5×10^5 CFU/mL, strain GC 4553): 0.5 µg/mL (≈ 0.353 µM)
- MIC Enterococcus faecalis (GC 4554) (Enterococcus sp.; inoculum 5×10^5 CFU/mL, strain GC 4554): 0.5 µg/mL (≈ 0.353 µM)
- MIC Enterococcus faecium (GC 4556) (Enterococcus sp.; inoculum 5×10^5 CFU/mL, strain GC 4556): 0.5 µg/mL (≈ 0.353 µM)
- MIC Enterococcus faecium (GC 4557) (Enterococcus sp.; inoculum 5×10^5 CFU/mL, strain GC 4557): 0.5 µg/mL (≈ 0.353 µM)
- MIC Enterococcus avium (GC 4558) (Enterococcus sp.; inoculum 5×10^5 CFU/mL, strain GC 4558): 0.5 µg/mL (≈ 0.353 µM)
- MIC Enterococcus faecalis (GC 6189) (Enterococcus sp.; inoculum 5×10^5 CFU/mL, strain GC 6189): 0.5 µg/mL (≈ 0.353 µM)
- MIC Escherichia coli (ATCC 25922) (Escherichia coli): >0.5 µg/mL
- MIC Escherichia coli (GC 4559) (Escherichia coli): >0.5 µg/mL
- MIC Escherichia coli (GC 4560) (Escherichia coli): 0.5 µg/mL (≈ 0.353 µM)

Compound: CC(C)C(=O)Nc1cc(CC2NC(=O)C(C(C)c3ccccc3)NC(=O)CNC(=O)C(CO)NC(=O)C(C(O)C3CNC(=N)N3C3OC(CO)C(O)C(O)C3O)NC(=O)C(C(O)C3CNC(=N)N3)NC2=O)ccc1O (stereo not drawn) [Example 15, Cyclo[glycyl-β-methylphenylalanyl-3-(2-methylpropanamido)tyrosyl-3-(2-iminoimidazolidin-4-yl)seryl-3-(3-hexopyranosyl-2-iminoimidazolidin-4-yl)serylseryl]]
- MIC Streptococcus pneumoniae (ATCC 6301) (Streptococcus sp.; strain ATCC 6301): >128 µg/mL
- MIC Streptococcus pneumoniae (GC 1894) (Streptococcus sp.; strain GC 1894): 128 µg/mL (≈ 121 µM)
- MIC Streptococcus pyogenes (GC 4563) (Streptococcus sp.; strain GC 4563): >128 µg/mL
- MIC Streptococcus agalactiae (GC 4564) (Streptococcus sp.; strain GC 4564): 128 µg/mL (≈ 121 µM)
- MIC Streptococcus pneumoniae (GC 4565) (Streptococcus sp.; strain GC 4565): 64 µg/mL (≈ 60.6 µM)
- MIC Staphylococcus aureus (ATCC 29213) (Staphylococcus sp.): >128 µg/mL
- MIC Staphylococcus aureus (GC 1131) (Staphylococcus sp.): >128 µg/mL
- MIC Staphylococcus aureus (GC 3051) (Staphylococcus sp.): >128 µg/mL
- MIC Staphylococcus aureus (GC 3053) (Staphylococcus sp.): >128 µg/mL
- MIC Staphylococcus aureus (GC 4541) (Staphylococcus sp.): >128 µg/mL
- MIC Staphylococcus aureus (GC 4542) (Staphylococcus sp.): >128 µg/mL
- MIC Staphylococcus aureus-SMITH (GC 4543) (Staphylococcus sp.): >128 µg/mL
- MIC Staphylococcus aureus (GC 4544) (Staphylococcus sp.): >128 µg/mL
- MIC Staphylococcus aureus (GC 4545) (Staphylococcus sp.): >128 µg/mL
- MIC Staphylococcus haemolyticus (GC 4546) (Staphylococcus sp.): >128 µg/mL
- MIC Coagulase Negative Staphylococcus (GC 4547) (Staphylococcus sp.): >128 µg/mL
- MIC Coagulase Negative Staphylococcus (GC 4548) (Staphylococcus sp.): >128 µg/mL
- MIC Coagulase Negative Staphylococcus (GC 4549) (Staphylococcus sp.): >128 µg/mL
- MIC Coagulase Negative Staphylococcus (GC 4551) (Staphylococcus sp.): >128 µg/mL
- MIC Coagulase Negative Staphylococcus (GC 6257) (Staphylococcus sp.): >128 µg/mL
- MIC Enterococcus faecalis (ATCC 29212) (Enterococcus sp.; strain ATCC 29212): >128 µg/mL
- MIC Enterococcus faecalis (GC 2242) (Enterococcus sp.; strain GC 2242): >128 µg/mL
- MIC Enterococcus faecium (GC 2243) (Enterococcus sp.; strain GC 2243): >128 µg/mL
- MIC Enterococcus faecalis (GC 2691) (Enterococcus sp.; strain GC 2691): >128 µg/mL
- MIC Enterococcus faecalis (GC 3059) (Enterococcus sp.; strain GC 3059): >128 µg/mL
- MIC Enterococcus faecalis (GC 4552) (Enterococcus sp.; strain GC 4552): >128 µg/mL
- MIC Enterococcus faecalis (GC 4553) (Enterococcus sp.; strain GC 4553): >128 µg/mL
- MIC Enterococcus faecalis (GC 4554) (Enterococcus sp.; strain GC 4554): >128 µg/mL
- MIC Enterococcus faecium (GC 4556) (Enterococcus sp.; strain GC 4556): >128 µg/mL
- MIC Enterococcus faecium (GC 4557) (Enterococcus sp.; strain GC 4557): >128 µg/mL
- MIC Enterococcus avium (GC 4558) (Enterococcus sp.; strain GC 4558): 128 µg/mL (≈ 121 µM)
- MIC Enterococcus faecalis (GC 6189) (Enterococcus sp.; strain GC 6189): >128 µg/mL
- MIC Escherichia coli (ATCC 25922) (Escherichia coli; strain ATCC 25922, broth dilution): >128 µg/mL
- MIC Escherichia coli (GC 4559) (Escherichia coli; strain GC 4559, broth dilution): >128 µg/mL
- MIC Escherichia coli (GC 4560) (Escherichia coli; strain GC 4560, broth dilution): 128 µg/mL (≈ 121 µM)
